Source: patent publication US8524782B2, “Key intermediate for the preparation of Stilbenes, solid forms of Pterostilbene, and methods for making the same” (Laurus Labs Private Limited, priority 2008, dated 2013)
Values joined by “and” are separate entries in the source; they are usually repeats but may differ in a detail not shown here. Equal values may be shown once.

Tests used:
[1] = Water vapor adsorption/desorption (WVS); type: physicochemical; settings: for Sorption (5-95-5% RH): adsorption 5 to 95% RH; for Desorption (5-95-5% RH): desorption 95 to 5% RH
Method: Water vapor adsorption/desorption (WVS) data were collected on a VTI SGA-100 Vapor Sorption Analyzer. NaCl and PVP were used as calibration standards. Samples were not dried prior to analysis. Adsorption and desorption data were collected over a range from 5 to 95% RH at 10% RH increments under a nitrogen purge. The equilibrium criterion used for analysis was less than 0.0100% weight change in 5 minutes with a maximum equilibration time of 3 hours if the weight criterion was not met. Data were not corrected for the initial moisture content of the samples.

[2] = Thermogravimetric (TG) analysis; type: physicochemical; settings: TGA, up to 150° C., attributed to residual solvent
Method: In Table 4, for Form I, the 26.4 kJ/mol value for the enthalpy of fusion was calculated from a single 10° C./min pattern whereas the 25.6 kJ/mol value was calculated as an average from three 50° C./min patterns. DSC results for Form III indicated a melt onset at 76° C., while HSM results indicated it was 81° C. Material decomposition was observed upon heating above approximately 170° C. The minor weight loss observed up to 150° C. was attributed to loss of residual solvent. FIG. 1 is a DSC stack plot for Forms I-V of Pterostilbene.
Thermogravimetric (TG) analyses were performed using a TA Instruments Q5000 IR thermogravimetric analyzer. Temperature calibration was performed using nickel and Alumel. Each sample was placed in an aluminum pan. The pan was hermetically sealed with a lid that was opened using a punching mechanism just before being inserted into the TG furnace. The furnace was heated under nitrogen at a rate of 10° C./minute.

[3] = Enthalpy (heat) of fusion from DSC data; type: physicochemical; settings: for Heat of fusion (ΔH), single analyses / Heat of fusion (ΔH), average: DSC 50° C./min; for Heat of fusion (ΔH), average: average of three
Method: In Table 4, for Form I, the 26.4 kJ/mol value for the enthalpy of fusion was calculated from a single 10° C./min pattern whereas the 25.6 kJ/mol value was calculated as an average from three 50° C./min patterns. DSC results for Form III indicated a melt onset at 76° C., while HSM results indicated it was 81° C. Material decomposition was observed upon heating above approximately 170° C. The minor weight loss observed up to 150° C. was attributed to loss of residual solvent. FIG. 1 is a DSC stack plot for Forms I-V of Pterostilbene. Differential Scanning Calorimetry (DSC) analyses were performed using a TA Instruments (New Castle, Del.) Q2000 differential scanning calorimeter, equipped with a refrigerated cooling system (RCS). Temperature calibration was performed using NIST traceable indium metal. The sample was placed into an aluminum DSC pan, and the weight was accurately recorded. The pan was covered with a lid perforated with a laser pinhole, and the lid was hermetically sealed. A weighed, crimped aluminum pan was placed on the reference side of the cell. The sample cell was equilibrated at sub-ambient temperature and heated under a nitrogen purge at a rate of 10° C./minute. Higher and lower heating rates were also investigated (from 1 to 300° C./min). Alternatively, data were obtained using a modulation amplitude of +/−0.8° C. and a 60 second period with an underlying heating rate of 2° C./min from −50 to 150° C. The reported glass transition temperatures are obtained from the inflection of the step change in the reversible heat flow versus temperature curve. Thermodynamic stability relationships of various forms of Pterostilbene were studied by calculating the heat of fusion for each form (from DSC data, see table 4) and through slurry interconversion experiments in toluene. Heat of fusion (ΔH) for Form I was determined (from […] DSC data) to be approximately 100 J/g or 25.6 kJ/mol. […] Heat of fusion for Form II was determined (from 10° C./min DSC data) to be approximately 92 J/g or 23.6 kJ/mol. […] Heat of fusion for Form III was estimated (from 50° C./min DSC data) to be approximately 75 J/g or 19.2 kJ/mol.

[4] = Intrinsic dissolution rate in water; type: physicochemical
Method: The polymorphs of Pterostilbene described herein can also be characterized by their respective dissolution rates. […] (open symbols) and 37° C. (filled symbols). […] UV-VIS spectrophotometry: samples were analyzed using a SpectraMax M2 Microplate Reader. Wavelength calibration and photometric accuracy was performed using the SpectraMax […] software as an internal calibration of the instrument. The instrument was blanked with an empty quartz glass plate. Samples were analyzed in the UV range at ambient temperature in the wells of a 96-well quartz plate. The absorbance spectra of water was collected and subtracted from the spectra of the drug solutions to calculate concentrations. Samples were performed in duplicate and absorbance data was averaged. The standard curve was determined based on absorbance at 310 nm.

[5] = Stress conditions, stability of Pterostilbene Form II; type: physicochemical
Source text: Stress conditions were employed to evaluate the stability of Pterostilbene Form II. […] Ambient and elevated temperature water slurry experiments starting with Form II material were set up in an effort to produce a hydrate of Pterostilbene.

[6] = Slurry interconversion experiments in toluene (XRPD of recovered solids); type: physicochemical; settings: from enthalpy of fusion, melting point and slurry interconversion in toluene
Method: Thermodynamic stability relationships of known forms of Pterostilbene were studied by calculating the enthalpy of fusion for each form (from DSC data, Table 4) and through slurry interconversion experiments in toluene in Table 1.
Saturated solutions of Pterostilbene were prepared at ambient temperature in toluene. The solutions were filtered and seeds of each form were added. The samples were agitated for days and the solids recovered by vacuum filtration. The solids were collected and allowed to dry under ambient conditions.

[7] = cited from earlier work
[8] = cited from earlier work; remark: listed apart in the source
[9] = Physical stability of amorphous Pterostilbene under ambient conditions; type: physicochemical
Source text: FIG. 9 is the x-ray diffraction pattern of x-ray amorphous Pterostilbene. By use the term “x-ray amorphous” what is meant is a material whose powder x-ray powder diffraction pattern is consistent with an amorphous “halo” as that term is understood in the art. By inspection, one of ordinary skill in the art would recognize that the pattern in FIG. 9 does represents a material without any significant crystallinity. However, the material may be nanocrystalline or some other disordered solid. The glass transition temperature of amorphous Pterostilbene was experimentally determined (by modulated DSC) to be approximately 4° C.

[10] = DSC 50° C./min (average of three for Forms I and II)

SMILES: COc1cc(/C=C/c2ccc(O)cc2)cc(OC)c1 [Form III]
- Sorption (5-95-5% RH) [1]: 0.6 weight %
- Desorption (5-95-5% RH) [1]: 0.5 weight %
- % weight loss (at 150° C.) [2]: 0.2%
- Heat of fusion (ΔH), single analyses [3]: approximately 75 J/g
- Enthalpy of fusion [3, 10]: ~4.59 kcal/mol
- Enthalpy of fusion ([3]; DSC 50° C./min (average of three for Forms I and II), listed as III): 4.59 kcal/mol

SMILES: COc1cc(/C=C/c2ccc(O)cc2)cc(OC)c1 [Form II]
- Sorption (5-95-5% RH) [1]: 0.2/0.2 weight %
- Desorption (5-95-5% RH) [1]: 0.2/0.2 weight %
- Intrinsic dissolution rate ([4]; 25° C.): 0.90 ± 0.03 μg/cm^−2/min
- Intrinsic dissolution rate ([4]; 37° C.): 2.35 ± 0.08 μg/cm^−2/min
- % weight loss (at 150° C.) [2]: 0.2%
- Organic vapor stress [5]: structurally unchanged
- Heat stress ([5]; 80° C. for 3 days): conversion to Form I
- Chemical stability on ambient exposure ([5]; ambient (air, but not light) exposure, 34 days): chemically unchanged
- Structural stability on ambient exposure ([5]; ambient (air, but not light) exposure, 70 days): structurally unchanged
- Hydrate formation in water slurry ([5]; ambient and elevated temperature water slurry): No hydrate was observed
- Moderate humidity stress ([5]; ambient and elevated temperatures): did not result in deliquescence
- Resulting material of water slurry ([5]; ambient temperature): Form II
- Resulting material of water slurry ([5]; elevated temperature): Form I
- Thermodynamic stability relationship of forms [6]: thermodynamically favored compared to Forms III-V
- Enthalpy of fusion ([3]; DSC 10° C./min): ~5.64 kcal/mol
- Heat of fusion (ΔH) ([3]; DSC 10° C./min): approximately 92 J/g
- Enthalpy of fusion ([3]; DSC 10° C./min, listed as II): 5.64 kcal/mol
- Heat of fusion (ΔH), single analyses [3]: 100 J/g and 91 J/g and 92 J/g
- Enthalpy of fusion [3, 10]: 5.78 kcal/mol
- Enthalpy of fusion ([3]; DSC 50° C./min (average of three for Forms I and II), listed as II): 5.78 kcal/mol
- Heat of fusion (ΔH), average [3]: 94 J/g

SMILES: COc1cc(/C=C/c2ccc(O)cc2)cc(OC)c1 [Form IV]
- Sorption (5-95-5% RH) ([1]; listed as IV): 0.5/0.5 weight %
- Desorption (5-95-5% RH) ([1]; listed as IV): 0.5/0.5 weight %
- % weight loss (at 150° C.) ([2]; listed as IV): 0.2%

SMILES: COc1cc(/C=C/c2ccc(O)cc2)cc(OC)c1 [Form I]
- Sorption (5-95-5% RH) [1]: 0.2/0.2 weight %
- Desorption (5-95-5% RH) [1]: 0.2/0.2 weight %
- Intrinsic dissolution rate ([4]; 25° C.): 0.83 ± 0.06 μg/cm^−2/min
- Intrinsic dissolution rate ([4]; 37° C.): 2.05 ± 0.03 μg/cm^−2/min
- % weight loss (at 150° C.) [2]: 0.5%
- Thermodynamic stability relationship of forms [6]: thermodynamically stable crystal form
- Enthalpy of fusion ([3]; DSC 10° C./min): ~6.12 kcal/mol and 6.31 kcal/mol
- Heat of fusion (ΔH) ([3]; DSC 10° C./min): approximately 100 J/g
- Enthalpy of fusion ([3]; DSC 10° C./min, listed as I): 6.12 kcal/mol
- Heat of fusion (ΔH), single analyses [3]: 106 J/g and 102 J/g and 101 J/g
- Enthalpy of fusion [3, 10]: 6.31 kcal/mol and 6.12 kcal/mol
- Enthalpy of fusion ([3]; DSC 50° C./min (average of three for Forms I and II), listed as I): 6.31 kcal/mol
- Heat of fusion (ΔH), average [3]: 103 J/g

SMILES: COc1cc(/C=C/c2ccc(O)cc2)cc(OC)c1 [Form V]
- Sorption (5-95-5% RH) ([1]; listed as V): 0.8 weight %
- Desorption (5-95-5% RH) ([1]; listed as V): 0.5 weight %
- % weight loss (at 150° C.) ([2]; listed as V): 0.4%

SMILES: COc1cc(/C=C/c2ccc(O)cc2)cc(OC)c1 [Pterostilbene, trans-3,5-dimethoxy-4′-hydroxystilbene]
- Solubility in water [7]: poor
- Bioavailability [8]: poor

SMILES: COc1cc(/C=C/c2ccc(O)cc2)cc(OC)c1 [amorphous Pterostilbene]
- Physical stability of the amorphous form [9]: rapidly crystallized
